Laboratory results published in US10501748B2, “Methods and compositions for integration of an exogenous sequence within the genome of plants” (Dow AgroSciences LLC, priority 2013, dated 2019).

Legend:
[1] = tested on: scutella of cv. Bobwhite MPB26RH and cv. Clearfield Janz (N653/N653); experiment: basal tolerance/resistance to IMAZAMOX at the callus induction stage; type: cell-based, Triticum aestivum
Protocol: The basal tolerance of the donor wheat line cv. Bobwhite MPB26RH and basal resistance of cv. Clearfield Janz (N653/N653) genotype to IMAZAMOX® at the callus induction stage was determined as follows: Scutella of immature zygotic embryos from each wheat line were isolated as described previously and placed in 10 cm PETRI™ dishes containing CIM medium supplemented with 0, 50, 100, 200, 300, 400 and 500 nM IMAZAMOX® respectively. Twenty scutella were placed in each PETRI™ dish. A total of 60 scutella from each of the donor wheat line cv. Bobwhite MPB26RH and cv. Clearfield Janz genotype were tested for basal tolerance and basal resistance response, respectively, at each IMAZAMOX® concentration. After incubation at 24° C. in the dark for 4 weeks, the amount of somatic embryogenic callus formation (SEC) at each IMAZAMOX® concentration was recorded. […] Bobwhite MPB26RH was reduced by about 70% at 100 nM IMAZAMOX®, compared to untreated samples. Callus formation for the cv. Clearfield Janz genotype was unaffected, relative to the untreated control, at any IMAZAMOX® concentrations tested.

[2] = tested on: cv. Clearfield Janz (S653/S653) and (N653/N653) plants; experiment: basal tolerance/resistance to IMAZAMOX at the plant regeneration stage, modified approach (plant growth); type: in vivo, Triticum aestivum; conditions: 3 weeks
Protocol: The basal tolerance of the cv. Clearfield Janz (S653/S653) genotype and basal resistance of the cv. Clearfield Janz (N653/N653) genotype to IMAZAMOX® at the plant regeneration stage was determined using a modified approach, as cv. […] Seed for each cv. Clearfield Janz genotype was germinated using the aseptic approach described above for producing wheat mesophyll protoplasts. The germinated seedlings were multiplied in vitro by sub-culturing on multiplication medium. Following multiplication, plants for each genotype were transferred to 10 cm PETRI™ dishes containing plant growth medium (MS+10 μM BA+0.8% agar) supplemented with 0, 100, 300, 600, 900, 1200, 1500 and 3000 nM IMAZAMOX®, respectively. Ten plants were placed in each PETRI™ dish. A total of 30 plants per genotype were tested for basal response at each IMAZAMOX® concentration. After incubation for 3 weeks at 24° C. under a 16/8 (light/dark) hour photoperiod in a growth room, the growth response was recorded. […] This response was similar to that observed for the cv. Bobwhite MPB26RH (S653/S653) genotype. In contrast, plant growth for the cv.

COCc1cnc(C2=NC(C)(C(C)C)C(=O)N2)c(C(=O)O)c1 (stereo not shown) [IMAZAMOX]
reduction of SEC formation ([1]; cv. Bobwhite MPB26RH, 100 nM, 4 weeks, compared to untreated samples): about 70% | callus formation relative to untreated control ([1]; cv. Clearfield Janz (N653/N653), any concentration tested (50-500 nM)): unaffected | concentration above which plant growth was strongly suppressed ([2]; cv. Clearfield Janz (N653/N653)): exceeded 2,000 nM | plant growth compared to untreated samples ([2]; cv. Clearfield Janz (S653/S653), medium containing at least 200 nM): severely reduced
